Measurements published in patent US6593365B1, “Diflunisal esters and related compounds” (The University of Queensland, priority 1997, dated 2003).
Read-outs that look alike come from different tables or passages of the source. Marks after values point to notes of the source that are not given here.

Columns and labels:
[1] = In vitro non-enzymatic hydrolysis in Krebs-Henseleit buffer; type: physicochemical; conditions: for Hydrolysis rate constant (k): pH 7.4, 25° C., n=5; for half-life: pH 7.4, read-out: Half life (t1/2) (converted)
Summary of the method: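 Derivatives dissolved in Krebs-Henseleit buffer, pH 7.4, 25±1° C, with no protein or 2% w/v BSA; solutions sonicated and centrifuged, supernatant sampled over time. First-order hydrolysis rate constant k derived from ester concentration vs time, and half-life calculated from k.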

[2] = test system: in-situ perfused rat liver; test: In-situ rat liver perfusions, hepatic availability (Example 2); type: in vitro ADME; conditions: 30 mL/min, bolus
Method: The hepatic availability (Fhepatic) for the O-acyl esters of the salicylic acid and diflunisal was determined using a once through in-situ perfused rat liver preparation (Mellick et al, Unpublished Results).
Protein-free Krebs-Henseleit buffer was perfused at 30 mL/min for aspiring analogues and 2% BSA in Krebs-Henseleit buffer for diflunisal esters (since the solubilities of these latter compounds in protein-free media were very low (Hung et al, supra), 2% BSA were used to increase their solubilities). Briefly, 50 μL aliquots of a saturated solution of the particular O-acyl salicylic acid or diflunisal in Krebs-Henseleit buffer (or with 2% BSA) was injected into the liver with perfusate outflow samples collected via a fraction collector over three minutes. Aliquots (100 μL) from the outflow samples were assayed by HPLC to determine the residual concentration of presented ester and the quantity of phenolic metabolite (salicylic acid or diflunisal) issuing from the perfused liver. The HPLC assay was a modification of the method used by Mellick & Roberts 1996 (Mellick et al, 1996, unpublished results).
The hepatic availability (F) was determined from the outflow concentration versus time profiles for the esters using equation 1, with the assistance of the Moments Calculator 2.2 program for Macintosh computer developed by Robert Purves.
where Q is the perfusate flow rate and D is the dose of aspirin analogues or diflunisal esters administered. The area under the concentration-time curve (AUC) was estimated by the trapezoidal rule integration with appropriate modification for tail (Mellick et al, supra).

[3] = test system: OH. generated from Fenton's reaction; test: Luminol-dependent chemiluminescence induced by Fenton's reagent; type: biochemical; design: unit of the concentration uncertain; conditions: F: CL induced by Fenton's reagent, n=3
Method: CL was measured with a luminometer (Model 1250; LKB Wallac, Finland) and recorded in millivolts (Cheung et al., 1984, supra).
Fenton's reagent (FeSO4 and H2O2) was used as a standard reaction mixture for the generation of OH. (Lai and Piette, 1979, Tetrahedron Lett. 775-778):
Fe^+++H2O2→Fe^++++OH.+OH (1)
The initial reaction mixture consisted of 20 μL of 3.8 mM FeSO4.7H2O, 20 μL of 5 mg/mL luminol (Sigma), and 2 mL of 1 mM phosphate buffer in a 3 mL polystyrene cuvette. Twenty microlitres of 320 mM H2O2 was added to initiate the Fenton's reaction.
A known concentration of the ethanolic (≲1%) aspirin analogue or diflunisal ester's stock solution was added to the 1 mM phosphate buffer to prepare solutions with a final concentration of 50 μM, 250 μM or 500 μM. Twenty microlitres of these test samples was added onto the cuvette which contained the initial reaction mixture. H2O2 was added to induce CL reaction. The luminol-dependent CL response was recorded in mV by a potentiometric recorder.
CL measurements were always done in triplicate and Student's t-test used to assess the statistical significance of the difference between measurements.

[4] = test system: ischaemic/reperfusion rat livers; test: Ischaemic/reperfusion injury in rat livers (LDH release, bile production); design: species or system Female Sprague-Dawley rats; conditions: for EC50: Rattus norvegicus
Method: Female Sprague-Dawley rats (220-250 g) were anaesthetised by interperitoneal injection of pentobarbital sodium (60 mg/kg, Boehringer Ingelhein). […] The bile duct was cannulated with a polyethylene tubing (PE-10, I.D. 0.28 mm; Clay Adams, New Jersey) and bile was collected into pre-weighed microcentrifuge tubes at 70 min intervals (in the middle of experiment and the end of experiment). The portal vein was then cannulated using a 16 G intravenous catheter and the liver was perfused via this cannula with 2% BSA Krebs-Henseleit bicarbonate buffer (pH 7.4) and oxygenated using a membrane oxygenator comprising of silastic tubing and ventilated with carbogen (95% O2/5% CO2). The perfusion system used was recirculating and employed a peristaltic pump (Cole-Parmer, Illinois).
Following a 10 min pre-ischaemia perfusion, the perfusion flow was stopped for 30 min at 37° C. with the liver being kept moist. At the end of this ischaemic phase, a known concentration of the aspirin analogue or diflunisal ester's solution (in 2% BSA Krebs-Henseleit buffer) was added into the perfusate prior to the perfusion being resumed for another 100 min. Outflow fractions were collected up to 140 min. A biochemistry autoanalyzer (Hitachi, model 747; Tokyo, Japan) was employed to determine the level of enzyme (LDH) release.
The degree of ischaemic/reperfusion injury was measured by calculating the area under the LDH release ([…]) versus time curve (AUC). […] The efficacy of each compound is expressed in terms of ED50 which represents the molar dose for 50% reduction of LDH release compared to the control. The comparison of bile production between the first stage of experiment (the first 70 min) and the second stage of experiment (the last 70 min) is also used as index of liver function during an experiment.

[5] = Krebs-Henseleit buffer 0% BSA, U = Undetectable
[6] = 2% BSA in Krebs-Henseleit buffer as perfusate
[7] = 0.5 (unit uncertain) compound, U = undetectable
[8] = bovine, Krebs-Henseleit buffer with 2% w/v BSA
[9] = protein-free Krebs-Henseleit buffer, Krebs-Henseleit buffer 0% BSA, first half life, t1/2=0.693/k, U = Undetectable
[10] = protein-free Krebs-Henseleit buffer as perfusate
[11] = C is the ED50 molar dose, read-out: log 1/C (converted)
[12] = molar dose for 50% reduction of LDH release compared to control, 30 min ischaemia, 100 min reperfusion, read-out: ED50 (the source's name)

Compound	Hydrolysis rate constant (k) [1, 5] [hour^1]	Hydrolysis rate constant (k) ([1]; Krebs-Henseleit buffer 2% BSA) [hour^1]	Hepatic availability (F) [2, 6]	CL inhibition (%) [3, 7]	CL inhibition (%) ([3]; 2.5 (unit uncertain) compound)	CL inhibition (%) ([3]; 5 (unit uncertain) compound)	log 1/C ([4]; C is the ED50 molar dose)	half-life [1, 8] [h]	half-life [1, 9] [h]	Hepatic availability (F) [2, 10]	EC50 [4, 11] [µM]	EC50 [4, 12] [µM]
CC(=O)Oc1ccc(-c2ccc(F)cc2F)cc1C(=O)O [Compound C2D, acetyldiflunisal]	0.0378 ± 0.0105	0.0238 ± 0.0095	0.21	21.3 ± 5.0%	49.8 ± 3.9	91.2 ± 0.6	4.61					
CCCC(=O)Oc1ccc(-c2ccc(F)cc2F)cc1C(=O)O [Compound C4D, n-butanoyldiflunisal]		0.0138 ± 0.0058	0.34	16.9 ± 4.9%	65.1 ± 2.1	93.7 ± 0.5	4.67					
CCCC(=O)Oc1ccccc1C(=O)O [Compound C4SA, n-butanoylsalicylic acid]	0.0049 ± 0.0037	0.0031 ± 0.0015			41.3 ± 7.5	84.2 ± 1.4		224	141	0.40	49	48.8
CCCCC(=O)Oc1ccc(-c2ccc(F)cc2F)cc1C(=O)O [Compound C5D, n-pentanoyldiflunisal]		0.0113 ± 0.0037	0.38	22.2 ± 7.1%	58.2 ± 2.5	88.8 ± 0.9	4.77					
CCCCC(=O)Oc1ccccc1C(=O)O [Compound C5SA, n-pentanoylsalicylic acid]	0.0061 ± 0.0027	0.0028 ± 0.0013		0.4 ± 0.1^e %	45.9 ± 5.0	95.6 ± 0.4		248	114	0.26	34.7	34.6
CCCCCC(=O)Oc1ccc(-c2ccc(F)cc2F)cc1C(=O)O [Compound C6D, n-hexanoyldiflunisal]		0.0056 ± 0.0042	0.38	20.5 ± 4.6%	54.8 ± 2.4	92.7 ± 3.1	4.68					
CCCCCC(=O)Oc1ccccc1C(=O)O [Compound C6SA, n-hexanoylsalicylic acid]	0.0059 ± 0.0023	0.0021 ± 0.0017		0.2 ± 0.1%	56.0 ± 3.7	96.0 ± 2.1		330	117	0.02	28.8	29.1
O=C(O)c1cc(-c2ccc(F)cc2F)ccc1O [DF, 2′,4′-difluoro-4-hydroxy-3-biphenylcarboxylic acid, reference compound]				19.2 ± 6.9%	50.6 ± 2.8	92.1 ± 0.6					25.1	25.2
O-acetylsalicylic acid [Compound C2SA, reference compound]					43.3 ± 5.0	97.6 ± 0.5				0.85		
